According to US7220768B2, “Isoxazole-containing thiourea inhibitors useful for treatment of varicella zoster virus” (Wyeth Holdings Corp., priority 2003, dated 2007):
Values after ≈ are worked out from the molar mass of the structure shown.

Legend:
VZV = VZV antiviral assay (Table 2); type: cell-based, varicella zoster virus; conditions: for IC50: Human alphaherpesvirus 3
MTS assay (Table 2) = type: cell-based
HCMV = assay: Human cytomegalovirus yield / microtiter plate assay; type: cell-based; conditions: human foreskin fibroblasts; for IC50: Human betaherpesvirus 5, Fibroblast
Procedure: Yield Assay. Monolayer cultures of human foreskin fibroblasts are infected with HCMV wild-type virus, typically at a multiplicity of infection equal to 0.2, in the presence of inhibitors compound (varying concentrations). At three days post-infection, total virus produced in these cultures (i.e. virus yield) is assessed by harvesting and titering the virus in 12-well plates of cultured human foreskin fibroblasts (done in the absence of inhibitors). Plaques are quantified at 2 weeks post-infection. An inhibitor of HCMV is identified by the reduction in titer of virus yield in the presence, compared to the titer in the absence of compound. In this assay, the relative anti-HCMV activity of an inhibitor is typically determined by calculating the IC50 or IC90 value, that is, the amount of compound required to reduce the virus yield by 50% or 90%, respectively. Table 2 describes IC50 data for compounds tested against HCMV.
Microtiter Plate Assay. Ninety-six well plate cultures of human foreskin fibroblasts are infected in the presence of inhibitor compound with a HCMV recombinant mutant virus whose genome contains the prokaryotic beta-glucuronidase gene (Jefferson, R. A., S. M. Burgess, and D. Hirsh. 1986. Beta-glucuronidase from Escherichia coli as a gene fusion marker. Proc. Natl. Acad. Sci. USA 83:8447–8451) whose expression is controlled by a viral promoter. An example of such a virus is RV145 [T. R. Jones; V. P. Muzithras, and Y. Gluzman. 1991, Replacement mutagenesis of the human cytomegalovirus genome: US10 and US11 gene products are nonessential, J. Virol. 65:5860–5872]. Since it is under the control of a viral promoter, beta-glucuronidase expression is an indirect indicator of growth and replication of HCMV in this assay. At 96 hours post-infection, the infected cell lysates are prepared (using 50 mM sodium phosphate [pH 7.0] containing 0.1% Triton X-100 and 0.1% sarkosyl) and assayed for beta-glucuronidase activity using a substrate for the enzyme which when cleaved yields either a product which can be measured colorimetrically in a spectrophotometer or fluorescently in a microfluorimeter. Examples of such substrates are p-nitrophenyl-beta-D-glucuronide and methylumbelliferylglucuronide, respectively. The presence of an antiviral compound is indicated by the reduced expression of the HCMV genome resident beta-glucuronidase gene, compared to the absence of inhibitor. […] Data from this assay generated using varying amounts of inhibitor compound is also used to estimate the IC50 of an inhibitor compound.

HSV = HSV Antiviral (ELISA) Assay; type: cell-based, herpes simplex virus; conditions: Vero cells
Procedure: HSV Antiviral (ELISA) Assay. Vero cells (ATCC #CCL-81) are plated on 96-well tissue culture plates at 3.5×10^4 cells per 100 μl tissue culture DMEM (Dulbecco's modified Eagle media) supplemented with 2% fetal bovine serum (FBS) in each well. After overnight incubation, inhibition was determined by comparing the fluorescence obtained in absence of compound to that obtained in the presence of compound.

RSV = RSV antiviral assay (Table 2); type: cell-based; conditions: for IC50: human respiratory syncytial virus

Structure (SMILES) | IC50 (VZV) [µg/mL] | IC50 (MTS assay (Table 2)) [µg/mL] | IC50 (HCMV) [µg/mL] | IC50 (HSV) [µg/mL] | IC50 (RSV) [µg/mL] | IC50 VZV (VZV) [µg/mL] | IC50 MTS (MTS assay (Table 2)) [µg/mL] | IC50 CMV (HCMV) [µg/mL] | IC50 HSV (HSV) [µg/mL] | IC50 RSV (RSV) [µg/mL]
CC(NC(=S)Nc1ccc(-c2nocc2C(C)(C)C)cc1)c1ccc(F)cc1 (stereo not shown) [Example 13, 1-[4-(4-tert-Butylisoxazol-3-yl)phenyl]-3-[1-(4-fluorophenyl)ethyl]thiourea] | 0.23 (≈ 0.579 µM) | 1.5 (≈ 3.77 µM) | 1.3 (≈ 3.27 µM) | 2.3 (≈ 5.79 µM) | 2.1 (≈ 5.28 µM) |  |  |  |  | 
CC(NC(=S)Nc1ccc(-c2conc2-c2ccccn2)cc1)c1ccc(F)cc1 (stereo not shown) [Example 20, N-[1-(4-Fluorophenyl)ethyl]-N′-{4-[3-(2-pyridinyl)-4-isoxazolyl]phenyl}thiourea] | 0.18 (≈ 0.43 µM) | > 15 | > 10 | > 10 | > 10 |  |  |  |  | 
CC(NC(=S)Nc1ccc(-c2nocc2CO)cc1)c1ccc(F)cc1 (stereo not shown) [Example 9, 1-[1-(4-Fluorophenyl)ethyl]-3-[4-(4-hydroxymethylisoxazol-3-yl)phenyl]thiourea] | 2 (≈ 5.38 µM) | > 15 | 5.7 (≈ 15.3 µM) | > 10 | 7.2 (≈ 19.4 µM) |  |  |  |  | 
CC(NC(=S)Nc1ccc(-c2conc2-c2ccnc3ccccc23)cc1)c1ccc(F)cc1 (stereo not shown) [Example 16, N-[1-(4-Fluorophenyl)ethyl]-N′-{4-[3-(4-quinolinyl)-4-isoxazolyl]phenyl}thiourea] | 0.08 (≈ 0.171 µM) | 6.5 (≈ 13.9 µM) | 0.8 (≈ 1.71 µM) | 3.1 (≈ 6.62 µM) | 2.3 (≈ 4.91 µM) |  |  |  |  | 
CC(NC(=S)Nc1ccc(-c2nocc2Cc2ccccc2)cc1)c1ccc(F)cc1 (stereo not shown) [Example 10, 1-[4-(4-Benzylisoxazol-3-yl)phenyl]-3-[1-(4-fluorophenyl)ethyl]thiourea] | 0.086 (≈ 0.199 µM) | > 15 | 2.4 (≈ 5.56 µM) | > 10 | > 10 |  |  |  |  | 
CC(NC(=S)Nc1ccc(-c2conc2-c2ccncc2)cc1)c1ccc(F)cc1 (stereo not shown) [Example 17, N-[1-(4-Fluorophenyl)ethyl]-N′-{4-[3-(4-pyridinyl)-4-isoxazolyl]phenyl}thiourea] | 0.14 (≈ 0.335 µM) | 5.5 (≈ 13.1 µM) | 0.93 (≈ 2.22 µM) | 3.7 (≈ 8.84 µM) | 1.5 (≈ 3.58 µM) |  |  |  |  | 
CC(NC(=S)Nc1ccc(-c2conc2-c2ccc(N)cc2)cc1)c1ccc(F)cc1 (stereo not shown) [Example 18, N-{4-[3-(4-Aminophenyl)-4-isoxazolyl]phenyl}-N′-[1-(4-fluorophenyl)ethyl]thiourea] | 0.05 (≈ 0.116 µM) | 13 (≈ 30.1 µM) | 2 (≈ 4.62 µM) | > 10 | > 10 |  |  |  |  | 
CC(NC(=S)Nc1ccc(-c2nocc2-c2ccccc2F)cc1)c1ccc(F)cc1 (stereo not shown) [Example 14, 1-[1-(4-Fluorophenyl)ethyl]-3-{4-[4-(2-fluorophenyl)isoxazol-3-yl]phenyl}thiourea] | 5.4 (≈ 12.4 µM) | > 15 | > 10 | > 10 | > 10 |  |  |  |  | 
CC(NC(=S)Nc1ccc(-c2conc2-c2ccc(O)cc2)cc1)c1ccc(F)cc1 (stereo not shown) [Example 22, N-[1-(4-Fluorophenyl)ethyl]-N′-{4-[3-(4-hydroxyphenyl)-4-isoxazolyl]phenyl}thiourea] | 0.61 (≈ 1.41 µM) | > 15 | 2.5 (≈ 5.77 µM) | > 10 | 9.9 (≈ 22.8 µM) |  |  |  |  | 
CC(NC(=S)Nc1ccc(-c2conc2-c2ccc(N(C)C)cc2)cc1)c1ccc(F)cc1 (stereo not shown) [Example 21, N-(4-{3-[4-(Dimethylamino)phenyl]-4-isoxazolyl}phenyl)-N′-[1-(4-fluorophenyl)ethyl]thiourea] | 0.34 (≈ 0.738 µM) | > 15 | 9.3 (≈ 20.2 µM) | > 10 | > 10 |  |  |  |  | 
CC(NC(=S)Nc1ccc(-c2nocc2Cc2ccc(F)cc2)cc1)c1ccc(F)cc1 (stereo not shown) [Example 11, 1-{4-[4-(4-Fluorobenzyl)isoxazol-3-yl]phenyl}-3-[1-(4-fluorophenyl)ethyl]thiourea] | 0.16 (≈ 0.356 µM) | 1.9 (≈ 4.23 µM) | 1.8 (≈ 4 µM) | 2.1 (≈ 4.67 µM) | 4.7 (≈ 10.5 µM) |  |  |  |  | 
CC(NC(=S)Nc1ccc(-c2conc2-c2csnn2)cc1)c1ccc(F)cc1 (stereo not shown) [Example 19, N-[1-(4-Fluorophenyl)ethyl]-N′-{4-[3-(1,2,3-thiadiazol-4-yl)-4-isoxazolyl]phenyl}thiourea] | 0.13 (≈ 0.306 µM) | > 15 | 0.9 (≈ 2.12 µM) | > 10 | > 10 |  |  |  |  | 
CC(NC(=S)Nc1ccc(-c2conc2-c2ncc[nH]2)cc1)c1ccc(F)cc1 (stereo not shown) [Example 24, N-[1-(4-Fluorophenyl)ethyl]-N′-{4-[3-(1 H-imidazol-2-yl)-4-isoxazolyl]phenyl}thiourea] | 1 (≈ 2.45 µM) | > 15 | > 10 | > 10 | > 10 |  |  |  |  | 
CC(NC(=S)Nc1ccc(-c2conc2-c2ccccc2O)cc1)c1ccc(F)cc1 (stereo not shown) [Example 25, N-[1-(4-Fluorophenyl)ethyl]-N′-{4-[3-(2-hydroxyphenyl)-4-isoxazolyl]phenyl}thiourea] | 1.9 (≈ 4.38 µM) | > 15 | 7.9 (≈ 18.2 µM) | > 10 | > 10 |  |  |  |  | 
CC(NC(=S)Nc1ccc(-c2nocc2-c2ccccc2)cc1)c1ccc(F)cc1 (stereo not shown) [Example 12, 1-[1-(4-Fluoropheny)ethyl]-3-[4-(4-phenylisoxazol-3-yl)phenyl]thiourea] |  |  |  |  |  | 0.37 (≈ 0.886 µM) | >15 | >10 | >10 | >10
CC(NC(=S)Nc1ccc(-c2conc2-c2ccccc2)cc1)c1ccc(F)cc1 (stereo not shown) [Example 23, N-[1-(4-Fluorophenyl)ethyl]-N′-[4-(3-phenyl-4-isoxazolyl)phenyl]thiourea] | 0.89 (≈ 2.13 µM) | > 15 | > 10 | > 10 | > 10 |  |  |  |  | 
CC(NC(=S)Nc1ccc(-c2conc2-c2cccnc2)cc1)c1ccc(F)cc1 (stereo not shown) [Example 15, N-[1-(4-Fluorophenyl)ethyl]-N′-{4-[3-(3-pyridinyl)-4-isoxazolyl]phenyl}thiourea] | 0.19 (≈ 0.454 µM) | 14 (≈ 33.5 µM) | > 10 | 3.1 (≈ 7.41 µM) | > 10 |  |  |  |  | 
